The values below come from ChEMBL document CHEMBL1201862, “PubChem BioAssay data set” (2004).

SMILES strings stand for the structures. Several values for one entry are separate records, joined by “and”; a condition that tells them apart may be missing. Equal entries are not always repeated.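 Five compound concentrations were applied to cells in 96-well plates for 48 hours; endpoints were derived by simple linear interpolation of the resulting dose-response curve. At the GI50, growth is halved.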 Activity calls are given as the source filed them. No stated cut-off is given here; in the data, active = GI50 up to about 1.1 µM and inactive = higher. Bounds are passed on as bounds.

Test systems include SNB-19; A498; UACC-257; NCI-H460; NCI-H226; Malme-3M; SF-539; OVCAR-4; U-251; HCT-15; IGROV-1; NCI-H23; HT-29; SK-MEL-5; CAKI-1; CCRF-CEM; RXF 393; OVCAR-5; MOLT-4; OVCAR-3.
What all share (assay): NCI anticancer screen, dose series, 48 h

With `NNc1nc2ccccc2s1`, the GI50 in the assay with SNB-19, in the assay with A498, in the assay on UACC-257, in the assay on NCI-H460, in the assay on NCI-H226 and with Malme-3M was > 100 µM (inactive) throughout. The GI50 is > 100 µM (inactive) with SF-539; > 100 µM (inactive) in the assay with OVCAR-4; > 100 µM (inactive) in the assay with U-251; more than 100 µM in the assay on HCT-15; > 100 µM (inactive) in the assay on IGROV-1; > 100 µM (inactive) in the assay with NCI-H23. In addition, the GI50 is > 100 µM (inactive) in the assay on HT-29; > 100 µM (inactive) with SK-MEL-5; > 100 µM (inactive) in the assay on CAKI-1; 35.1 µM (inactive) with CCRF-CEM; > 100 µM (inactive) in the assay with RXF 393; > 100 µM (inactive) with OVCAR-5. Also, in the assay with MOLT-4, the GI50 was 37.3 µM (inactive).
Consider `CN1CC2(CCCCC2)C(O)C12C=CCCC2` (configuration not stated), for which the GI50 with SNB-19, in the assay with A498, in the assay on UACC-257, in the assay on NCI-H226, in the assay with Malme-3M and with SF-539 was > 100 µM (inactive) each time. Further, the GI50 in the assay on U-251 was > 100 µM (inactive); in the assay with HCT-15 it was more than 100 µM; in the assay on IGROV-1, > 100 µM (inactive); with NCI-H23 it was > 100 µM (inactive); with HT-29 it was > 100 µM (inactive); in the assay with OVCAR-3, > 100 µM (inactive). Also, the GI50 in the assay with SK-MEL-5, in the assay on CAKI-1, in the assay on CCRF-CEM, in the assay on RXF 393 and in the assay with MOLT-4 was > 100 µM (inactive) throughout.
With `C1=Cc2nccc3cc4c(c(c23)N1)OCO4`, the GI50 with SNB-19 was 7.08 µM (inactive); with A498, 21.6 µM (inactive); with UACC-257, 17.5 µM (inactive); in the assay with NCI-H460, 4.36 µM (inactive); in the assay with NCI-H226, 11.4 µM (inactive); in the assay on Malme-3M, 9.23 µM (inactive). Moreover, the GI50 in the assay with OVCAR-4 is 7.45 µM (inactive); with U-251, 13.5 µM (inactive); in the assay with HCT-15 it was 13.9 µM; in the assay on IGROV-1 it was 2.56 µM (inactive); in the assay on NCI-H23 it was 6.92 µM (inactive); in the assay with OVCAR-3, 10.9 µM (inactive). The GI50 was 8.99 µM (inactive) in the assay on CAKI-1; 7.69 µM (inactive) with CCRF-CEM; 1.64 µM (inactive) with RXF 393; 10.4 µM (inactive) in the assay on OVCAR-5; 1.39 µM (inactive) in the assay on MOLT-4.
Take `C1CCC(OC2CSC2)OC1` (configuration not stated): the GI50 in the assay with SNB-19, in the assay on A498, with UACC-257, in the assay on NCI-H460, with NCI-H226 and in the assay on OVCAR-4 was > 100 µM (inactive) each time. The GI50 is > 100 µM (inactive) in the assay with U-251; more than 100 µM with HCT-15; > 100 µM (inactive) with NCI-H23; > 100 µM (inactive) in the assay with HT-29; > 100 µM (inactive) in the assay on OVCAR-3; > 100 µM (inactive) in the assay on SK-MEL-5. The GI50 in the assay on CCRF-CEM, in the assay on RXF 393 and in the assay on MOLT-4 was > 100 µM (inactive) in each case.
Take `CC1CC(Br)C(=O)O1` (configuration not stated): the GI50 in the assay with SNB-19, with A498, in the assay with UACC-257, in the assay with NCI-H460, in the assay on Malme-3M and with SF-539 was > 100 µM (inactive) throughout. In addition, the GI50 was > 100 µM (inactive) with OVCAR-4; > 100 µM (inactive) in the assay with U-251; more than 100 µM with HCT-15; > 100 µM (inactive) with IGROV-1; > 100 µM (inactive) in the assay with NCI-H23; > 100 µM (inactive) with HT-29. The GI50 in the assay on OVCAR-3, in the assay on SK-MEL-5, in the assay on CAKI-1, in the assay with CCRF-CEM, in the assay with RXF 393 and with OVCAR-5 was > 100 µM (inactive) each time. Also, the GI50 with MOLT-4 is > 100 µM (inactive).
As to `CC1=C(C)Cc2c(O)ccc(O)c2C1`, the GI50 in the assay on SNB-19 is > 100 µM (inactive); in the assay with A498 it was 83.9 µM (inactive); with UACC-257, 18.2 µM (inactive); in the assay on NCI-H460 it was 43.7 µM (inactive); with NCI-H226 it was 17.4 µM (inactive); in the assay with Malme-3M, 17.5 µM (inactive). The GI50 in the assay on SF-539 was 20 µM (inactive); in the assay on U-251, 16.6 µM (inactive); in the assay on HCT-15, 17.5 µM; in the assay with NCI-H23, 27.9 µM (inactive); in the assay on HT-29 it was 14.1 µM (inactive); in the assay with OVCAR-3, 20.4 µM (inactive). In addition, the GI50 in the assay on SK-MEL-5 is 14.6 µM (inactive); with CAKI-1, 18.2 µM (inactive); in the assay with CCRF-CEM it was 3.12 µM (inactive); in the assay on RXF 393, 15.9 µM (inactive); in the assay with OVCAR-5, 20.7 µM (inactive); in the assay with MOLT-4 it was 19.3 µM (inactive).
As to `CN1c2ccccc2NC(CC(=O)O)C2CC=CN21` (configuration not stated), the GI50 in the assay on SNB-19, with A498, in the assay with UACC-257, with NCI-H460, with Malme-3M and with SF-539 was > 100 µM (inactive) in each case. Further, the GI50 in the assay on OVCAR-4 was > 100 µM (inactive); in the assay with U-251, > 100 µM (inactive); with HCT-15, more than 100 µM; in the assay with IGROV-1, > 100 µM (inactive); in the assay with NCI-H23, > 100 µM (inactive); in the assay with HT-29, > 100 µM (inactive). The GI50 in the assay on OVCAR-3, with SK-MEL-5, in the assay on CAKI-1, with CCRF-CEM, with RXF 393 and in the assay with OVCAR-5 was > 100 µM (inactive) each time. The GI50 in the assay with MOLT-4 was > 100 µM (inactive).
Consider `COc1cc(C(C)O)c[n+](Cc2ccccc2)c1` (configuration not stated), for which the GI50 with SNB-19, in the assay with A498, in the assay with UACC-257, in the assay on NCI-H460, in the assay on NCI-H226 and with Malme-3M was > 100 µM (inactive) throughout. Also, the GI50 in the assay with SF-539 is > 100 µM (inactive); with OVCAR-4, > 100 µM (inactive); in the assay with U-251, > 100 µM (inactive); with HCT-15, more than 100 µM; with IGROV-1, > 100 µM (inactive); in the assay with NCI-H23, > 100 µM (inactive). The GI50 in the assay on HT-29, in the assay with OVCAR-3, with SK-MEL-5, in the assay with CAKI-1, in the assay on CCRF-CEM and in the assay on RXF 393 was > 100 µM (inactive) in each case. The GI50 in the assay with OVCAR-5 and in the assay with MOLT-4 was > 100 µM (inactive) in each case.
As to `Cc1c2cnccc2c(C)c2c1c1ccccc1n2CCCCCCCl`, the GI50 is 40.4 µM (inactive) in the assay with SNB-19; > 50 µM (inactive) in the assay on A498; > 33.1 µM (inactive) with UACC-257; 29.4 µM (inactive) in the assay on NCI-H460; 22.5 µM (inactive) in the assay with NCI-H226; > 50 µM (inactive) in the assay with Malme-3M. Moreover, the GI50 with SF-539 was > 50 µM (inactive); in the assay with OVCAR-4, > 10.5 µM (inactive); with U-251, 35.1 µM (inactive); with HCT-15, more than 50 µM; with IGROV-1, > 45.7 µM (inactive); in the assay on NCI-H23, 38.6 µM (inactive). Also, the GI50 in the assay on HT-29 is 29.6 µM (inactive); in the assay with OVCAR-3, 49.7 µM (inactive); in the assay on SK-MEL-5 it was > 50 µM (inactive); in the assay on CAKI-1 it was > 50 µM (inactive); in the assay with CCRF-CEM, 32.7 µM (inactive); with RXF 393, > 50 µM (inactive). Besides, the GI50 in the assay with OVCAR-5 is > 46.2 µM (inactive); in the assay with MOLT-4, 19.9 µM (inactive).
`COC(=O)[C@]12CC[C@H]3CN(C(=O)OCc4ccccc4)[C@H]([C@H]31)[C@H](C(=O)OCC[Si](C)(C)C)N2S(=O)(=O)c1ccc(C)cc1`: the GI50 with SNB-19 was > 100 µM (inactive); with A498, 16.7 µM (inactive); in the assay on UACC-257, 20 µM (inactive); with NCI-H460, > 100 µM (inactive); with NCI-H226 it was > 100 µM (inactive); in the assay on Malme-3M, 96.6 µM (inactive). The GI50 is > 100 µM (inactive) with SF-539; 11.4 µM (inactive) with OVCAR-4; > 100 µM (inactive) in the assay with U-251; more than 100 µM in the assay on HCT-15; > 100 µM (inactive) with IGROV-1; > 100 µM (inactive) in the assay on NCI-H23. Also, the GI50 is 42.7 µM (inactive) in the assay on HT-29; > 100 µM (inactive) in the assay with OVCAR-3; 12.2 µM (inactive) in the assay with SK-MEL-5; > 100 µM (inactive) with CAKI-1; 54 µM (inactive) in the assay with CCRF-CEM; 4.74 µM (inactive) in the assay with RXF 393. Moreover, the GI50 in the assay with OVCAR-5 was > 100 µM (inactive); in the assay with MOLT-4 it was 19.5 µM (inactive).
Regarding `COc1cc2c3cc1Oc1c(OC)c(OC)cc4c1C(Cc1ccc(cc1)Oc1cc(ccc1O)CC3N(C)CC2)N(C)CC4` (configuration not stated), the GI50 in the assay with A498 was 16.1 µM (inactive); in the assay with NCI-H226 it was 16.8 µM (inactive) and 18.9 µM (inactive); with Malme-3M it was 7.01 µM (inactive) and 14 µM (inactive); in the assay with OVCAR-4 it was 12.4 µM (inactive) and 14.1 µM (inactive); with U-251 it was 11.2 µM (inactive) and 9.08 µM (inactive); in the assay on IGROV-1, 16.7 µM (inactive) and 11.4 µM (inactive). For the same molecule, the GI50 in the assay with NCI-H23 was 12.8 µM (inactive) and 17.1 µM (inactive); in the assay with HT-29 it was 2.78 µM (inactive) and 5.09 µM (inactive); with OVCAR-3, 13.6 µM (inactive) and 15.8 µM (inactive); in the assay on CAKI-1 it was 14.3 µM (inactive) and 16.9 µM (inactive); in the assay on RXF 393, 1.29 µM (inactive) and 1.09 µM (active); in the assay on OVCAR-5, 18.5 µM (inactive) and 14.8 µM (inactive). For the same molecule, in the assay with MOLT-4, the GI50 was 4.41 µM (inactive) and 5.09 µM (inactive).
